Assay results taken from ChEMBL document CHEMBL2073857, “Increased sensitivity to vincristine of MDR cells by the leukotriene D4 receptor antagonist, ONO-1078” (Cancer Lett, 1998).

Target: Multidrug resistance-associated protein 1 (MRP1) (Homo sapiens, UniProt P33527)
Test: TP_TRANSPORTER: inhibition of LTC4 uptake (LTC4: 0.00134 uM, ONO-1078: 100 uM) in membrane vesicles from CV60 cells
Type: functional, cell membranes, Membrane vesicle
Set-up: scale not given: the % may be the effect or the level left
Settings: probe LTC4 (0.00134 uM), read-out: Activity

Multidrug resistance-associated protein 1 (MRP1), sequence (P33527 whole entry): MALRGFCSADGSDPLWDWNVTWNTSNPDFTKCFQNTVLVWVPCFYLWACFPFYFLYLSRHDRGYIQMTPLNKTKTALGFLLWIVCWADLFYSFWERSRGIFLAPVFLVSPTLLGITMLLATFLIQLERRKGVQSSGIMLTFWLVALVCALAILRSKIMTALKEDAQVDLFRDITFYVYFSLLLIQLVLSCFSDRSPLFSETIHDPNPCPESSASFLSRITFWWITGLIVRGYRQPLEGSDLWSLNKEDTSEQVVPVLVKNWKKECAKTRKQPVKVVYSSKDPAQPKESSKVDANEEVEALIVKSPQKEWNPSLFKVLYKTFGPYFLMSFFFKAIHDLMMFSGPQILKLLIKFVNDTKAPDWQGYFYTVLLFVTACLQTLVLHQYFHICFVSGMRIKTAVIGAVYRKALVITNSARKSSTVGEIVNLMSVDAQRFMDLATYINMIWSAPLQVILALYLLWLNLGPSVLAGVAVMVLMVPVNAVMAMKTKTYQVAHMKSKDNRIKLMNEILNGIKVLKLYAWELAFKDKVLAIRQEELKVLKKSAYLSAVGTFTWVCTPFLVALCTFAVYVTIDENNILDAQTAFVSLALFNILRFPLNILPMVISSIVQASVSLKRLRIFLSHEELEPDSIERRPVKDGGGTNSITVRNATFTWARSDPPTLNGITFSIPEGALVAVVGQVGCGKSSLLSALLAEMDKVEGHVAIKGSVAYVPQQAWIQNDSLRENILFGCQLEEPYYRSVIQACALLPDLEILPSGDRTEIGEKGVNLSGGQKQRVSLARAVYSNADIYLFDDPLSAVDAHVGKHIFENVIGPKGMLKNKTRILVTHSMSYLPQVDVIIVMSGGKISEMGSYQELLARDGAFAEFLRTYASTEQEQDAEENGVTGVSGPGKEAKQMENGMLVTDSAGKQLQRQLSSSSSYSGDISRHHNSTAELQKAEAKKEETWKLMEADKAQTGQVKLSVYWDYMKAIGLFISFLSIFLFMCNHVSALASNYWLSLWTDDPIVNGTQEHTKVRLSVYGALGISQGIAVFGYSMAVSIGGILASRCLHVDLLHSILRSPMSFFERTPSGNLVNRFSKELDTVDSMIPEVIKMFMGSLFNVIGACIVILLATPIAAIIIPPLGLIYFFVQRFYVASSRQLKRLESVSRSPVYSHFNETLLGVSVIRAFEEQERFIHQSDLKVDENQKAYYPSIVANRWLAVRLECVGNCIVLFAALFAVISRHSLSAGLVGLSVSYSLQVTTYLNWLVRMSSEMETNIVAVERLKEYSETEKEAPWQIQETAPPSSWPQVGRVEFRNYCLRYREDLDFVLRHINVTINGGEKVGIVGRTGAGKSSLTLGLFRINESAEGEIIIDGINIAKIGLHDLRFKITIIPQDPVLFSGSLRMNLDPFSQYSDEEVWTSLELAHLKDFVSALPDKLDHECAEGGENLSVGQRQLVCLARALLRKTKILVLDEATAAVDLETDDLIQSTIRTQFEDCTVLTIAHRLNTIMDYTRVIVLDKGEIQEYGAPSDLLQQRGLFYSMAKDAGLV

- activity at 100 µM: 55%
SMILES: O=C(Nc1cccc2c(=O)cc(-c3nnn[nH]3)oc12)c1ccc(OCCCCc2ccccc2)cc1 [PRANLUKAST]
